Where no end group is shown, it is not given here. The star is where a group is joined. Biotin = O=C1N[C@H]2[C@H](CS[C@H]2CCCCC(=O)*)N1
What was measured:
[1] = system: pellicle coated bovine enamel; test: Phage ELISA on pellicle coated bovine enamel (Example 6); format: binding, human; conditions: 10^11 pfu phage, 30 min in vivo pellicle on bovine enamel, normalized to an internal control
Method: A total of 29 selected phage candidates from Table 5 were used in phage ELISA Experiment to determine binding affinity and coverage of each phage on pellicle substrates. Purified phage lysates were used for binding to pellicle coated bovine enamel using an anti-M13 phage antibody conjugated to horseradish-peroxidase, followed by the addition of chromogenic agent TMB. The plates were read at A450 nm.
The wells were filled with 1 mL of 10^11 pfu purified phage stock which was prepared by diluting in blocking buffer. […] The non-binding phage was removed by washing 5 times with PBST. […] The conjugate solution was removed and was washed 3 times with PBST.

[2] = system: pellicle-coated HAP disks; test: Phage ELISA on pellicle-coated HAP disks; format: binding, human; conditions: over 10^10 pfu phage, A450
Description: A total of 20 selected phage candidates (Example 1) were used in a phage ELISA experiment. Purified phage lysates were used for binding to pellicle-coated HAP disks using an anti-M13 phage antibody conjugated to horseradish-peroxidase, followed by the addition of chromogenic agent TMB (3,3′,5,5′-tetramethylbenzidine), obtained from Pierce Biotechnology (Item #34021; Rockford, Ill.). The plates were read at A450 nm.
For each phage candidate to be tested, the pellicle-coated HAP disks (3 mm diameter) was incubated for 1 h at room temperature with 200 μL of blocking buffer, consisting of 2% non-fat dry milk (Schleicher & Schuell, Inc.) in TBS. […] The tube was rinsed 6 times with wash buffer consisting of TBST-0.05%. The wells were filled with 200 μL of TBST-0.5% containing 1 mg/mL BSA (bovine serum albumin) and then 10 μL (over 10^10 pfu) of purified phage stock was added. The samples were incubated at room temperature for 60 min with slow shaking. The non-binding phage were removed by washing 6 times with TBST-0.5%. […] The conjugate solution was removed and was washed 6 times with TBST-0.5%.

[3] = system: pellicle coated enamel substrates; conditions: 20 μM biotinylated peptide, streptavidin-HRP, normalized to DenP03, three replicates
Method: A total of 20 synthetic peptides were manufactured using sequences obtained from Table 6. Peptides were obtained from SynBioSci Corp. (Livermore, Calif.) and included an additional sequence (SSRP; SEQ ID NO: 118) at the N-terminus and biotin labeled lysine at the C-terminus.
Enamel substrates were cut into approximately 7 mm squares and mounted on wax mounting for incubation in the mouth for 30 min to form a pellicle coated surface. The pellicle coated enamel substrates were removed from the wax backing and placed in well plates with the pellicle surface exposed as in Example 5. Each pellicle coated substrate was incubated for 1 h at room temperature (˜22° C.) with 1 mL of blocking buffer, consisting of 1 mg/mL BSA in PBST (Pierce BUPH™ #28372 with 0.1% TWEEN® 20). The blocking buffer was removed by aspirating the liquid out of each well. The tube was rinsed 2 times with wash buffer consisting of PBST. The wells were filled with 500 μL of 20 μM peptide solution which was prepared by diluting in blocking buffer. The samples were incubated for 30 min with slow shaking at 37° C. The non-binding peptide was removed by washing 6 times with PBST. Then, 500 μL of horseradish peroxidase/streptavidin conjugate (Pierce #22127), diluted 1:2000 in PBST, was added and incubated for 1 h at room temperature (˜22° C.). The conjugate solution was removed and was washed 4 times with PBST.
Each enamel substrate was removed from the well and washed again in a 15-mL test tube with 10 mL of PBST. Each enamel substrate was then mounted in a clean well plate with only the enamel surface exposed. A 1:1 solution of TMB substrate and H2O2 (200 μL) was added to each well and the color was allowed to develop for between 10 to 20 min, typically for 15 min, at room temperature (˜22° C.). Then, 100 μL of solution from each well was transferred to a 96 well reading plate containing stop solution (100 μL of 2 M H2SO4) in each well. The A450 was measured using a microplate spectrophotometer (Molecular Devices, Sunnyvale, Calif.). […] Each sequence was tested with three replicate enamel coated pellicle substrates.

Row | Substance | O.D.450 (normalized) [1] | O.D.450 [2] | other results
1 | HKNAIQPVNDATTLDTTM (Synthetic oral-surface binding peptide) [DenP9] | 1.364 | – | –
2 | HDPNHLTHQARTIYRNANHT (Synthetic oral-surface binding peptide) [DenP23] | 1.236 | – | –
3 | NGNNHTDIPNRSSYTGGSFA (Synthetic oral-surface binding peptide) [DenP1] | 1.002 | – | –
4 | TPCAPASFNPHCSR (Synthetic oral-surface binding peptide) [Pell 18] | – | 0.416 | –
5 | DECMHGSDVEFCTS (Synthetic oral-surface binding peptide) [Pell 4] | – | 0.664 | –
6 | GMPTRYYHNTPPHLTPKF (Synthetic oral-surface binding peptide) [DenP8] | 1.182 | – | –
7 | TTGSSSQADTSASMSIVPAH (Synthetic oral-surface binding peptide) [DenP17] | 0.971 | – | –
8 | AHPESLGIKYALDGNSDPHA (Synthetic oral-surface binding peptide) [Pell 1] | – | 0.739 | –
9 | APPTYQTASYPHNLPSKRKM (Synthetic oral-surface binding peptide) [DenP28] | 1.203 | – | –
10 | QVPDYLSPTHQKKAFLEIPT (Synthetic oral-surface binding peptide) [DenP29] | 0.976 | – | –
11 | NPTATPHMKDPMHSNAHSSA (Synthetic oral-surface binding peptide) [Pell 14] | – | 0.7 | –
12 | YLLPKDQTTAPQVTPIVQHK (Synthetic oral-surface binding peptide) [DenP5] | 1.087 | – | –
13 | SSRPDLGTFPNRTLKMAAHK(Biotin) [DenP11-A] | – | – | O.D.450 (normalized) [3]: 0.454
14 | DLGTFPNRTLKMAAH (Synthetic oral-surface binding peptide) [DenP11] | 1.663 | – | –
15 | TYQGVPSWPAVIDDAIRR (Synthetic oral-surface binding peptide) [DenP19] | 1.052 | – | –
16 | DLCSMQMMNTGCHY (Synthetic oral-surface binding peptide) [Pell 5] | – | 0.83 | –
17 | SSRPFDGIGLGTATRHQNRK(Biotin) [DenP12-A] | – | – | O.D.450 (normalized) [3]: 0.475
18 | KAPIANMLQPHSYQYSVA (Synthetic oral-surface binding peptide) [DenP18] | 1.143 | – | –
19 | WCTDFCTRSTPTSTSRSTTS (Synthetic oral-surface binding peptide) [Pell 20] | – | 0.715 | –
20 | SSRPTMTNHVYNSYTEKHSSTHRSK(Biotin) [DenP2-A] | – | – | O.D.450 (normalized) [3]: 0.273

Row | Substance | O.D.450 (normalized) [1] | O.D.450 [2] | other results
21 | TNDLHANPFTGTYIAPDPTS (Synthetic oral-surface binding peptide) [DenP30] | 1.082 | – | –
22 | HKNENIMQYNVNDRWHITPA (Synthetic oral-surface binding peptide) [DenP32] | 1.441 | – | –
23 | NPTDSTHMMHARNHE (Synthetic oral-surface binding peptide) [Pell 16] | – | 0.578 | –
24 | NGPDMVQSVGKHKNS (Synthetic oral-surface binding peptide) [Pell 10] | – | 0.729 | –
25 | SSRPTTGSSSQADTSASMSIVPAHK(Biotin) [DenP17-A] | – | – | O.D.450 (normalized) [3]: 0.143
26 | GNTDTTPPNAVMEPTVQHKW (Synthetic oral-surface binding peptide) [Pell 9] | – | 0.755 | –
27 | SSRPVNPNWVETQALHQPPGNTK(Biotin) [DenP20-A] | – | – | O.D.450 (normalized) [3]: 0.590
28 | QAAQVHMMQHSRPTT (Synthetic oral-surface binding peptide) [DenP13] | 0.845 | – | –
29 | SSRPYLLPKDQTTAPQVTPIVQHKK(Biotin) [DenP5-A] | – | – | O.D.450 (normalized) [3]: 0.462
30 | IYPNESMSTSNVRGPYHP (Synthetic oral-surface binding peptide) [DenP22] | 1.420 | – | –
31 | ELDHDSRHYMNGLQRKVT (Synthetic oral-surface binding peptide) [DenP15] | 1.112 | – | –
32 | IPWWNIRAPLNAGGG [Control, reference compound] | 1.000 | – | –
33 | SSRPNGNNHTDIPNRSSYTGGSFAK(Biotin) [DenP1-A] | – | – | O.D.450 (normalized) [3]: 0.154
34 | ANELSTYAQTNPGSG (Synthetic oral-surface binding peptide) [DenP25] | 0.909 | – | –
35 | SEARARTFNDHTTPMPII (Synthetic oral-surface binding peptide) [DenP14] | 2.498 | – | –
36 | SSRPIYPNESMSTSNVRGPYHPK(Biotin) [DenP22-A] | – | – | O.D.450 (normalized) [3]: 0.354
37 | SSRPVEPATKNMREARSSTQMRRIK(Biotin) [DenP4-A] | – | – | O.D.450 (normalized) [3]: 0.803
38 | FDGIGLGTATRHQNR (Synthetic oral-surface binding peptide) [DenP12] | 2.079 | – | –
39 | DHNNRQHAVEVRENKTHTAR (Synthetic oral-surface binding peptide) [DenP21] | 0.728 | – | –
40 | GPQHVLMQDTHQGYAFDN (Synthetic oral-surface binding peptide) [DenP16] | 2.190 | – | –

Row | Substance | O.D.450 (normalized) [1] | O.D.450 [2] | other results
41 | SNATMYNIQSHSHHQ (Synthetic oral-surface binding peptide) [DenP24] | 0.979 | – | –
42 | DLCSSPSTWGSCIR (Synthetic oral-surface binding peptide) [Pell 6] | – | 0.735 | –
43 | DECMEPLNAAHCWR (Synthetic oral-surface binding peptide) [Pell 3] | – | 0.49 | –
44 | VNPNWVETQALHQPPGNT (Synthetic oral-surface binding peptide) [DenP20] | 1.298 | – | –
45 | TMTNHVYNSYTEKHSSTHRS (Synthetic oral-surface binding peptide) [DenP2] | 1.951 | – | –
46 | DTIHPNKMKSPSSPL (Synthetic oral-surface binding peptide) [DenP26] | 1.039 | – | –
47 | ASVSNYPPIHHLATSNTTVN (Synthetic oral-surface binding peptide) [Pell 2] | – | 0.75 | –
48 | TPCATYPHFSGCRA (Synthetic oral-surface binding peptide) [Pell 19] | – | 0.731 | –
49 | NNTWPEGAGHTMPSTNIRQA (Synthetic oral-surface binding peptide) [Pell 13] | – | 0.598 | –
50 | AVVPADLNDHANHLS (Synthetic oral-surface binding peptide) [DenP10] | 1.619 | – | –
51 | DPNESNYENATTVSQPTRHL (Synthetic oral-surface binding peptide) [Pell 7] | – | 0.831 | –
52 | NPTDHIPANSTNSRVSKGNT (Synthetic oral-surface binding peptide) [Pell 15] | – | 0.567 | –
53 | VEPATKNMREARSSTQMRRI (Synthetic oral-surface binding peptide) [DenP4] | 1.421 | – | –
54 | EFPYYNDNPPNPERHTLR (Synthetic oral-surface binding peptide) [DenP7] | 1.500 | – | –
55 | EPTHPTMRAQMHQSLRSSSP (Synthetic oral-surface binding peptide) [Pell 8] | – | 0.712 | –
56 | QHCITERLHPPCTK (Synthetic oral-surface binding peptide) [Pell 17] | – | 0.614 | –
57 | NGPEVRQIPANFEKL (Synthetic oral-surface binding peptide) [Pell 11] | – | 0.607 | –
58 | NNTSADNPPETDSKHHLSMS (Synthetic oral-surface binding peptide) [Pell 12] | – | 0.521 | –

From patent US8354381B2, “Peptide compositions for oral care systems” (E I du Pont de Nemours and Company, priority 2009, dated 2013)
